Results on 3 compounds are retold here after ChEMBL document CHEMBL1122903, “Synthesis, in vitro [3H]prazosin displacement, and in vivo activity of 3-aryl-4,5,6,7-tetrahydropyrazolo[4,3-c]pyridines, a new class of antihypertensive agents” (J Med Chem, 1985).

“And” between values parts separate entries of the source, which are not always exact repeats. Identical values can stand only once.

In assay [1] the target is T1, Adrenergic receptor alpha-1 (Rattus norvegicus, UniProt P15823+P23944+P43140).
T1 sequence (P15823 whole entry): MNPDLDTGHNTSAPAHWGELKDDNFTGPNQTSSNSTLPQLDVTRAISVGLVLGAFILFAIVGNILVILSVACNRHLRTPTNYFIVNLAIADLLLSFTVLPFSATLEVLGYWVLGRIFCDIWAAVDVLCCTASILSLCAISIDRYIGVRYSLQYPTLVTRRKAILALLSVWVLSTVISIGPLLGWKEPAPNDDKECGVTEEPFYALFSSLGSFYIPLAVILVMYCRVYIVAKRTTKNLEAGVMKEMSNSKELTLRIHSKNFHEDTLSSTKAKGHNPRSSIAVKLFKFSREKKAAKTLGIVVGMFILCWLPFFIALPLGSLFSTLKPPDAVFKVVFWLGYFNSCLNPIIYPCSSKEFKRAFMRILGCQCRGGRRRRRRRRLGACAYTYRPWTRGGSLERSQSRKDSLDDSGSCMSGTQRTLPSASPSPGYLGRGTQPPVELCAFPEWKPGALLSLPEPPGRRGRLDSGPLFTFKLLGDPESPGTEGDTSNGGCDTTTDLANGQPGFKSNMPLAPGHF
T1 sequence (P23944 whole entry): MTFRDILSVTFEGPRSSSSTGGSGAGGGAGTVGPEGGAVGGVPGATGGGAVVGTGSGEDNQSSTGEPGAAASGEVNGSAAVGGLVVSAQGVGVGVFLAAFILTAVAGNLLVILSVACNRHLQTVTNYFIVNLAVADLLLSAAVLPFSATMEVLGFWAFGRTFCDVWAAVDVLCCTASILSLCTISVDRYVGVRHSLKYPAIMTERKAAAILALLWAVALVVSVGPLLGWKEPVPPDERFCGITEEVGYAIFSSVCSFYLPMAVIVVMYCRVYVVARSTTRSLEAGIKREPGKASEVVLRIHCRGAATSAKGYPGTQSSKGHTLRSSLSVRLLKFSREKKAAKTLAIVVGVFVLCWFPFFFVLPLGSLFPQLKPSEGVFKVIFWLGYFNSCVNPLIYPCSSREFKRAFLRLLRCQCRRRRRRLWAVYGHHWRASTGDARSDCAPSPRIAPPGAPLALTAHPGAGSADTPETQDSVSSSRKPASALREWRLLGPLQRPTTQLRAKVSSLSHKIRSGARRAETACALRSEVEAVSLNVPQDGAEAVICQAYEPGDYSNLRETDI
T1 sequence (P43140 whole entry): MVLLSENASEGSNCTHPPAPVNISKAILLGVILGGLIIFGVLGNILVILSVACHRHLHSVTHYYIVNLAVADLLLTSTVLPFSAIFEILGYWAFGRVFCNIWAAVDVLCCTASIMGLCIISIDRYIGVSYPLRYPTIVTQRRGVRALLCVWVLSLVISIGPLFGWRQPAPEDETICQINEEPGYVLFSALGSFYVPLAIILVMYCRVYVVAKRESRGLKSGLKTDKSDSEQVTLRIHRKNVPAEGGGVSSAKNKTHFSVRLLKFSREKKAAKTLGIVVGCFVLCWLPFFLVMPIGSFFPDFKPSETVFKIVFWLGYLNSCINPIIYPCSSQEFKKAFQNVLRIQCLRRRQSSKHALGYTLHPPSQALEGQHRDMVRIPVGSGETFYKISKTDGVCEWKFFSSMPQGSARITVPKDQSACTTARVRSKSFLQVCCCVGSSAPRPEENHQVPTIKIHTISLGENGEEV
Kind of assay: Ability to displace [3H]prazosin from postsynaptic alpha-1 adrenergic receptor of rat in vitro. The assay is classed as protein assay.

For assay [2], the system named is Rattus norvegicus. Kind of assay: Antihypertensive activity on spontaneously hypertensive rats, when administered orally at a dose 30 mg/kg. The class given is functional. Conditions: route oral.
The test system of assay [3] is Rattus norvegicus. The assay can be described thus: Antihypertensive activity on spontaneously hypertensive rats, when administered orally at a dose 15 mg/kg. The assay is classed as functional. To be noted: route oral.
Assay [4] concerns Canis familiaris. Kind of assay: Heart rate after 8 hours of oral administration in renal hypertensive dogs at dose 0.1 mg/kg. The assay is classed as functional, Canis lupus familiaris.
The subject of assay [5] is Canis familiaris. Kind of assay: Heart rate after 8 hours of oral administration in renal hypertensive dogs at dose 0.3 mg/kg. The assay is classed as functional, Canis lupus familiaris.
The test system of assay [6] is Canis familiaris. Kind of assay: Heart rate after 8 hours of oral administration in renal hypertensive dogs at dose 0.5 mg/kg. The class given is functional, Canis lupus familiaris.
In assay [7] the test system is Canis familiaris. Kind of assay: Heart rate after 6 hours of oral administration in renal hypertensive dogs at dose 0.3 mg/kg. The class given is functional, Canis lupus familiaris.
In assay [8] the test system is Canis familiaris. The assay can be described thus: Heart rate after 6 hours of oral administration in renal hypertensive dogs at dose 0.5 mg/kg. The assay is classed as functional, Canis lupus familiaris.
The test system of assay [9] is Canis familiaris. Kind of assay: Systolic blood pressure after 4 hr of oral administration in renal hypertensive dogs at dose 0.3 mg/kg. The class given is functional, Canis lupus familiaris.
The test system of assay [10] is Canis familiaris. Kind of assay: Systolic blood pressure after 4 hr of oral administration in renal hypertensive dogs at dose 0.5 mg/kg. The class given is functional, Canis lupus familiaris.
The test system of assay [11] is Canis familiaris. The assay can be described thus: Systolic blood pressure after 6 hr of oral administration in renal hypertensive dogs at dose 0.1 mg/kg. The class given is functional, Canis lupus familiaris.
Assay [12] concerns Canis familiaris. Kind of assay: Systolic blood pressure after 6 hr of oral administration in renal hypertensive dogs at dose 0.3 mg/kg. The class given is functional, Canis lupus familiaris.
The subject of assay [13] is Canis familiaris. Kind of assay: Systolic blood pressure after 6 hr of oral administration in renal hypertensive dogs at dose 0.5 mg/kg. The class given is functional, Canis lupus familiaris.
Assay [14] relates to Canis familiaris. The assay can be described thus: Systolic blood pressure after 8 hr of oral administration in renal hypertensive dogs at dose 0.1 mg/kg. The class given is functional, Canis lupus familiaris.
Assay [15] relates to Canis familiaris. The assay can be described thus: Systolic blood pressure after 8 hr of oral administration in renal hypertensive dogs at dose 0.3 mg/kg. The class given is functional, Canis lupus familiaris.
The subject of assay [16] is Canis familiaris. Kind of assay: Systolic blood pressure after 8 hr of oral administration in renal hypertensive dogs at dose 0.5 mg/kg. The assay is classed as functional, Canis lupus familiaris.
The subject of assay [17] is Canis familiaris. The assay can be described thus: Heart rate after 2 hours of oral administration in renal hypertensive dogs at dose 0.1 mg/kg. The assay is classed as functional, Canis lupus familiaris.
For assay [18], the system named is Canis familiaris. The assay can be described thus: Heart rate after 2 hours of oral administration in renal hypertensive dogs at dose 0.3 mg/kg. The assay is classed as functional, Canis lupus familiaris.
In assay [19] the test system is Canis familiaris. Kind of assay: Peak effect after 2-4 hours systolic blood pressure after 1 days of oral administration in renal hypertensive dogs at dose 0.3 mg/kg. The class given is functional, Canis lupus familiaris, Artery.
Assay [20] concerns Canis familiaris. Kind of assay: Peak effect after 2-4 hours systolic blood pressure after 2 day of oral administration in renal hypertensive dogs at dose 0.3 mg/kg. The assay is classed as functional, Canis lupus familiaris, Artery.
For assay [21], the system named is Canis familiaris. The assay can be described thus: Peak effect after 2-4 hours systolic blood pressure after 3 days of oral administration in renal hypertensive dogs at dose 0.3 mg/kg. The assay is classed as functional, Canis lupus familiaris, Artery.
For assay [22], the system named is Canis familiaris. Kind of assay: Peak effect after 2-4 hours systolic blood pressure after 7 days of oral administration in renal hypertensive dogs at dose 0.3 mg/kg. The class given is functional, Canis lupus familiaris, Artery.
The test system of assay [23] is Canis familiaris. The assay can be described thus: Systolic blood pressure after 0 hours of oral administration in renal hypertensive dogs at dose 0.1 mg/kg. The assay is classed as functional, Canis lupus familiaris.
Assay [24] has as its system Canis familiaris. The assay can be described thus: Systolic blood pressure after 0 hours of oral administration in renal hypertensive dogs at dose 0.3 mg/kg. The class given is functional, Canis lupus familiaris.
The test system of assay [25] is Canis familiaris. The assay can be described thus: Heart rate after 0 hours of oral administration in renal hypertensive dogs at dose 0.1 mg/kg. The assay is classed as functional, Canis lupus familiaris.
For assay [26], the system named is Canis familiaris. The assay can be described thus: Heart rate after 0 hours of oral administration in renal hypertensive dogs at dose 0.3 mg/kg. The class given is functional, Canis lupus familiaris.
Assay [27] relates to Canis familiaris. Kind of assay: Heart rate after 0 hours of oral administration in renal hypertensive dogs at dose 0.5 mg/kg. The class given is functional, Canis lupus familiaris.
Assay [28] deals with Canis familiaris. The assay can be described thus: Systolic blood pressure after 0 hours of oral administration in renal hypertensive dogs at dose 0.5 mg/kg. The assay is classed as functional, Canis lupus familiaris.
For assay [29], the system named is Canis familiaris. The assay can be described thus: Systolic blood pressure after 2 hours of oral administration in renal hypertensive dogs at dose 0.1 mg/kg. The class given is functional, Canis lupus familiaris.
Assay [30] deals with Canis familiaris. The assay can be described thus: Systolic blood pressure after 2 hours of oral administration in renal hypertensive dogs at dose 0.3 mg/kg. The assay is classed as functional, Canis lupus familiaris.
Assay [31] concerns Canis familiaris. Kind of assay: Systolic blood pressure after 2 hr of oral administration in renal hypertensive dogs at dose 0.5 mg/kg. The assay is classed as functional, Canis lupus familiaris.
Assay [32] has as its system Canis familiaris. Kind of assay: Heart rate after 6 hours of oral administration in renal hypertensive dogs at dose 0.1 mg/kg. The class given is functional, Canis lupus familiaris.
Assay [33] has as its system Canis familiaris. Kind of assay: Heart rate after 4 hours of oral administration in renal hypertensive dogs at dose 0.1 mg/kg. The assay is classed as functional, Canis lupus familiaris.
For assay [34], the system named is Canis familiaris. Kind of assay: Heart rate after 4 hours of oral administration in renal hypertensive dogs at dose 0.3 mg/kg. The assay is classed as functional, Canis lupus familiaris.
The test system of assay [35] is Canis familiaris. The assay can be described thus: Heart rate after 4 hours of oral administration in renal hypertensive dogs at dose 0.5 mg/kg. The class given is functional, Canis lupus familiaris.
Assay [36] has as its system Canis familiaris. Kind of assay: Systolic blood pressure after 4 hr of oral administration in renal hypertensive dogs at dose 0.1 mg/kg. The class given is functional, Canis lupus familiaris.
The test system of assay [37] is Canis familiaris. The assay can be described thus: Heart rate after 2 hours of oral administration in renal hypertensive dogs at dose 0.5 mg/kg. The assay is classed as functional, Canis lupus familiaris.

Broadly, the Ki is a measure of affinity in units of concentration, obtained from inhibition or displacement. Read a low Ki as higher affinity. The compound `CCn1nc(-c2ccc(F)cc2)c2c1CCN(C)C2.CS(=O)(=O)O` registered an inhibitory constant (Ki) in assay [1] of 362 nM. Also, the Delta p in the assay on Rattus norvegicus [2] was -37%.

Compound `Cl.Clc1ccc(-c2[nH]nc3c2CNCC3)cc1` registered a Ki in [1] of 145 nM. The Delta p in the assay on Rattus norvegicus [3] stood at 0%.

Regarding `COc1cc2nc(N3CCN(C(=O)c4ccco4)CC3)nc(N)c2cc1OC` [PRAZOSIN], the Heart rate in the assay with Canis familiaris [4] turned out to be 106%; in the assay with Canis familiaris [5], 100%; in the assay on Canis familiaris [6], 82 beats min-1; in the assay with Canis familiaris [7] it was 90%; in the assay with Canis familiaris [8] it was 78 beats min-1; in the assay with Canis familiaris [17], 92%. For the same compound, the Heart rate in the assay with Canis familiaris [18] stood at 114%; in the assay on Canis familiaris [25], 104 beats min-1; in the assay with Canis familiaris [26] it was 110 beats min-1; with Canis familiaris [27] it was 86 beats min-1; in the assay on Canis familiaris [32], 96%; in the assay with Canis familiaris [33], 94%. Further, the Heart rate was determined as 100% with Canis familiaris [34], 82% in the assay with Canis familiaris [35] and 94 beats min-1 in the assay with Canis familiaris [37]. Besides, the Blood pressure in the assay on Canis familiaris [9] was found to be 160 mmHg; with Canis familiaris [10], 125 mmHg; in the assay on Canis familiaris [11], 193 mmHg; in the assay with Canis familiaris [12], 165 mmHg; in the assay with Canis familiaris [13], 125 mmHg; in the assay on Canis familiaris [14] it was 196 mmHg. The Blood pressure is 180 mmHg with Canis familiaris [15]; 150 mmHg with Canis familiaris [16]; 96% in the assay with Canis familiaris [19]; 100% and 92% with Canis familiaris [20]; 96% in the assay on Canis familiaris [21]; 100% in the assay on Canis familiaris [22]. Moreover, the Blood pressure with Canis familiaris [23] was found to be 205 mmHg; in the assay with Canis familiaris [24] it was 202 mmHg; with Canis familiaris [28], 190 mmHg; in the assay with Canis familiaris [29] it was 186 mmHg; in the assay on Canis familiaris [30], 182 mmHg; in the assay on Canis familiaris [31], 135 mmHg. Also, the Blood pressure in the assay with Canis familiaris [36] came to 180 mmHg.
